According to patent US7947312B2, “Method of preparation and composition of a water soluble extract of the bioactive component of the plant species Uncaria for enhancing immune, anti-inflammatory, anti-tumor and DNA repair processes of warm blooded animals” (priority 2002, dated 2011):
Each block holds one compound with its values, some of them ahead of it.

What was measured:
[1] = tested on: HL-60 human leukemic cells; assay: In vitro cytotoxicity in HL-60 cells, MTT assay (Table 2); assay type: cell-based
Procedure: In Table 2, the in vitro cytotoxicity of the various components were determined in HL-60 human leukemic cells using the MTT assay and calculation of IC50 values as described in detail elsewhere. Quinic acid ester content was determined by the Bartos method (Bartos, 1980). […] The quinic acid traveling between Rf=0.2-0.3 was eluted from the TLC plates with 1% aqueous ammonia and the relative quantity estimated by absorption at 200 nm as ± being less than 0.050 and “++++” denoting the highest amount detected, with a decrease in the number of “+” signs corresponding to a decrease in the amount of QA detected.

[2] = Acid and base hydrolysis of QAL and QA measured by Bartos reaction (Table 3); assay type: physicochemical; settings: 500 μg/test
Source text: To further characterize the QA analogs as the active ingredients in C-MED-100® in vitro, we determined the influence of base hydrolysis on the chemistry and biological activity of C-MED-100®. QAL is in fact a cyclic ester of QA, and as such it is an example representing the general class of QA esters. Elution from silica gel with 1% ammonia were the mandated chemical conditions necessary to remove the QA analog (i.e., active ingredient) from silica gel, which in turn favored the base hydrolysis of QA esters such as QAL to QA. If so, then identification of QA after base hydrolysis from the elution of silica gel, would then be consistent with the natural occurrence in C-MED-100® of a QA ester at Rf=0.2-0.3. […] It is quite clear that either strong acid or base treatment converted QAL to QA, and left only QA remaining, thus supporting the fact that the isolation of QA from C-MED-100® after base elution from silica gel was likely to have been originally present as a QA ester.

HL-60 W6899 cells = assay: HL-60 bioassay, microculture 5 days, clonogenicity estimated by MTT assay (Table 1); assay type: cell-based, human; settings: parameters are approximations
Procedure: An assay of biological activity of C-MED-100®'s active ingredient is prepared as follows: HL-60 […] cells are exposed in microculture at 5000 cells per well (96-well plates) for 5 days at 37 ? C. in a CO2 incubator. After incubation, the cells are washed with saline and clonogenicity estimated by MTT assay.

[3] = tested on: human HL-60 leukemic cells; assay: In vitro growth inhibition by QA salts in cultured HL-60 cells, MTT, 72 hr (FIG. 8); assay type: cell-based; settings: HL-60 cells
Procedure: QA was purchased from Sigma (>99%). QA salts were synthesized by neutralization with the appropriate base, i.e., NH4OH, NaOH, Ca(OH)2, Zn(OH)2, LiOH, KOH, lysine or histidine. Serial dilutions of test compounds were added to human HL-60 leukemic cells (0.05×10^6 cells/ml) in 96-well, flat bottomed microtiter plates to give final concentrations in the cultures up to 3000 μg/ml. The plates were incubated for 72 hr at 37 C, pulsed with 20 μl MTT (5 mg/ml) for 3 hr, and the color estimated spectrophotometrically at 540 nm as described previously. (Schweitzer, C M et al. Spectrophotometric determination of clonogenic capacity of leukemic cells in semisolid microtiter culture systems. Experimental Hematology 21: 573-578, 1993). IC50 values were calculated and compared based on the live/dead ratio of cells.

IκBα = assay: Western blotting of IκBα and phosphorylated IκBα in LPS-stimulated 70Z/3 cells; assay type: cell-based, mouse; settings: QA 2 mg/ml or PDTC 100 μM
Procedure: FIGS. 5C and 5D illustrate 70Z/3 cells (5×10^6) that were pre-treated with QA (2 mg/ml) or with PDTC (100 μM) as a positive control for two hours and thereafter stimulated with LPS (25 μg/ml) for the indicated time. Cytoplasmic extracts equalized for protein concentration were analyzed by western blotting using IκBα-specific antibodies. One representative experiment out of three (FIG. 5C) and one representative experiment out of two (FIG. 5D) are presented.
Preparation of cell extracts: The 70Z/3 cells were pretreated with QA (1 or 2 mg/ml) or with PDTC for 2 hours before they were stimulated with LPS for various time points. Whole cell extracts from the 70Z/3 cells (1×10^6) were prepared for analysis of the NF-κB signaling pathway. The cells were washed twice in PBS, resuspended in lysis buffer (75 mM Tris-HCl (pH 8.0), 100 mM NaCl, 5 mM KCl, 3 mM MgCl2, 2% NP-40, 1 mM PMSF and a protease inhibitor cocktail) (Roche Diagnostics Scandinavia AB) and incubated on ice for 10 min. The cell debris was pelleted and the supernatants were stored at −70° C. until Western Blot was performed.
Western blotting: Cellular extracts from 70Z/3 cells were separated on a 10% SDS polyacrylamide gel and the proteins were transferred to a nylon membrane. After blocking overnight in 5% dry fat-free milk in TBST, the membrane was incubated for 2 hrs with primary antibodies specific either to IκBα or to phosphorylated IκBα (both from Cell Signaling Technology Inc, Beverly, Mass.). The membranes were thereafter washed three times in TBST, and incubated with HRP-conjugated goat anti-rabbit antibodies (Amersham Pharmacia). The membranes were washed three times and chemoluminescence was detected using the ECL-reagent (Amersham Pharmacia) and x-ray film (CEA AB, Strängnäs, Sweden).

- % Degraded (Bartos Reaction A490 nm) ([2]; 1M NaOH): 74.1%
- % Degraded (Bartos Reaction A490 nm) ([2]; 1N HCl): 58.2%
- Bioassay after 1% aqueous ammonia IC50 HL-60 cells (HL-60 W6899 cells; after 1% aqueous ammonia): >3000 µg/mL
- Bioassay efficacy using IC50 in HL-60 cells (HL-60 W6899 cells): 80 µg/mL
Compound: O=C1O[C@@H]2C[C@@]1(O)C[C@@H](O)[C@H]2O [Quinic acid lactone, quinic acid lactone]
- HL-60 MTT IC50 ([1]; no base hydrolysis, listed as QAL #2 batch syn.): >2300 µg/mL
- HL-60 MTT IC50 ([1]; sample treated +2 M NaOH, 2 hr): 1600 µg/mL

Compound: O=C1O[C@@H]2C[C@@]1(O)C[C@@H](O)[C@H]2O [QAL #1 batch syn., quinic acid lactone]
- HL-60 MTT IC50 ([1]; no base hydrolysis): 1200 µg/mL

Compound: O=C([O-])C1(O)CC(O)C(O)[C@H](O)C1.[Na+] (some centres unmarked) [Quinic acid (QA) sodium salt]
- HL-60 MTT IC50 ([1]; no base hydrolysis): 1500 µg/mL
- in vitro cytotoxicity compared to C-MED-100 (FIG. 8) [3]: in vitro cytotoxicity comparable to that of C-MED-100®

Compound: S=C(S)N1CCCC1 [PDTC, pyrollidine dithiocarbamate, reference compound]
- phosphorylation of IκBα (IκBα): potently inhibited
- LPS-induced breakdown of IκBα (IκBα; 2 h pretreatment): inhibits both the breakdown of IκBα and its resynthesis
